The source of these data is US20230190657A1, “METHODS AND COMPOSITIONS FOR TREATING A FIBROTIC DISEASE” (TRUSTEES OF BOSTON UNIVERSITY, priority 2020, published 2023).

Entries after “also recorded” stand apart in the source; their conditions may differ.

The subject of one data set is human fibroblasts. Particulars: cited from earlier work.
The nature of data set [1]: Circular dichroism spectroscopy of relaxin-2 fold and stability. It is filed as physicochemical. The method, then:
Relaxin-2 loaded PLGA microparticles (RMPs) were prepared based on the water/oil/water (w/o/w) method as described by Igartua, M., et. al., International Journal of Pharmaceutics, 1998, 169(1): 45-54 at 1.27 x 10-3 wt % loaded relaxin as determined by ELISA analysis. Significant optimization and tailoring of the method was required to obtain the particle. Amounts, time, temperature, mixing speed, polymer LA:GA content were all varied to identify a unique non-obvious set of conditions to prepare the polymer. […] Relaxin-2 in the relaxin-2 microparticles maintained its native secondary and tertiary structure through the w/o/w double-emulsion process. […] Additionally, relaxin-2 was stable at 37° C. over 2 months (FIG. 2, right). The relaxin-2 PLGA microparticles were prepared with batch-to-batch consistency and were resuspended in PEG-600 to reduce aggregation and flocculation, as well as to ease administration through a 23G needle.
Two amphiphilic hydrogels were synthesized for the physical entrapment of relaxin-2 in order to control its sustained release (FIG. 6). These amphiphilic molecules melted at 95 °C and congealed when slowly cooled back to room temperature strictly from non-covalent interactions. The alkyl chain of 1 and alkyl fluoride chain of 2 allow for hydrophobic interactions between each molecule, while the […] and thymidine moieties allow for pi-pi stacking. Lastly, the deoxyribose and glucose groups facilitate hydrogen bonding (Godeau, G., et al., Tetrahedron Letters 2010, 51: 1012-1015; Ramen, F.A. et al., Biomaterials. 2017, 145: 72-80). Together, these amphiphilic molecules create unique and stable supramolecular assemblies that are stable at 37 °C for at least two weeks. This stability feature is another novel finding and benefit to the use of the hydrogels. Three gels of each 1 and 2 were created with bovine serum albumin and relaxin-2 at different densities by dissolving each molecule in a solution of phosphate buffered saline with protein and heating to 95 °C for 30 minutes. […] After cooling down to room temperature, relaxin-2-loaded gels were fully congealed (FIG. 7, right).

Data set [2] concerns collagen I expression in human fibroblast-like synoviocytes (HFLS). Briefly: Collagen I expression in HFLS treated with relaxin-2 microparticles in transwells. In kind it is cell-based. From the text:
Human fibroblast-like synoviocytes (HFLS) treated with relaxin-2 microparticles in transwells allow for evaluation of the release and efficacy of released relaxin-2 at various time points. […] In the presence of relaxin-2, collagen I is expressed at 20 to 30 % of the basal level at weeks 1, 3, and 4.

The test system of data set [3] is scleroderma (systemic sclerosis). Particulars: cited from earlier work.
In data set [4] the test system is collagen build-up in the lung induced by bleomycin. Particulars: cited from earlier work.
A further data set has as its system heart failure. Particulars: 30 micrograms/kg/day for 2 days, intravenous infusion; cited from earlier work.
The subject of data set [5] is shoulder joint (arthrofibrosis). Briefly: Histological analysis of the shoulder joint in rat shoulder contracture model. In kind it is in vivo. Particulars: immobilized shoulders of rats; mIA of relaxin-2 or relaxin loaded microparticles.
The test system of data set [6] is stiff shoulder (shoulder contracture), glenohumeral joint. Briefly: Range of motion in rat shoulder contracture model. It is filed as in vivo, rats. The method, then:
The study was approved by the Institutional Animal Care and Use Committee, and 10 Sprague-Dawley rats (250-300 g, Charles River Laboratories, Wilmington, MA, USA) were used in the study. For each animal, torque was measured per degree, on the intact left shoulder as a function of rotation angle between 80° of internal rotation (negative values by convention) and 60° of external rotation (positive values by convention) prior to any surgical intervention (baseline). […] Therefore, torque values at 60° external rotation (rOUT) and 80° of internal rotation (τINT) were recorded for each animal.
The left forelimb of each animal was immobilized using extraarticular internal fixation. Under isoflurane anesthesia, a longitudinal skin incision was made perpendicular to the scapular spine. Two No. 2-0 braided polyester sutures (Ethibond Excel, Ethicon - San Lorenzo, PR, USA) were passed between the medial border of the scapula and the humeral shaft and tightened to immobilize the shoulder joint (FIG. 1, panel A). Muscular structures were not manipulated during surgery, and the animals were allowed normal activity in their cages immediately after the procedure.
After 8 weeks of immobilization, the restraining sutures were removed, and the 10 animals were divided into two groups to evaluate changes in ROM (ROM group, n = 5) and joint stiffness (stiffness group, n = 5). In the ROM group, changes in kinematics were longitudinally quantified in the follow-up period by measuring the ROM achieved with the τOUT and τINT measured at baseline. This was conducted to evaluate whether immobilization mediated a significant reduction in ROM. In the stiffness group, joint kinetics were examined by measuring the differences in τOUT and τINT needed to achieve the original 80° of internal rotation and 60° of external rotation, respectively. […]
To reproducibly capture ROM and torque, passive limb rotation was performed by a stepper motor controlled with a microcontroller (UNO R3, Arduino - Torino, Italy). […] In the ROM group, pre-set programmable torque values, specific for each animal and measured at baseline (τOUT and τINT), were used as input variables in order to detect changes in rotation ROM with 0.2° resolution. […]
This study investigated the effects of recombinant human relaxin-2 on the kinetics and kinematics of the glenohumeral joint in an animal model of shoulder contracture, as described in Villa-Camacho et al., Journal of Shoulder and Elbow Surgery, 2015, 24(11): 1809-16. […] For each animal, torque was measured per degree, on the intact left shoulder as a function of rotation angle between […] and 60° of external rotation prior to any surgical intervention. […]

For data set [7] the following is noted: in vivo; cited from earlier work.
The subject of data set [8] is cultured renal fibroblasts, epithelial cells and mesangial cells. Particulars: cited from earlier work.

Turning to Relaxin-2, the “collagen and fibronectin levels” value with human fibroblasts is “reduction in levels of collagen types I and III and fibronectin”. Further, the “time stable at 37° C. without loss of alpha helical structure” value in data set [1] is “up to 2 months”; in [1] (listed as relaxin-2) it was 2 months. Moreover, in data set [1] (95° C., at least one hour), the “conformation after incubation at 95° C.” value is listed as “maintains its folded 3D structure; also recorded: tolerant to incubation for at least one hour”. Besides, the “secondary (alpha helical) structure after the double emulsion process” value in [1] (w/o/w double emulsion of PLGA microparticle synthesis) was “no change; also recorded: unaffected by the double emulsion process”. Besides, the “antifibrotic efficacy (downregulation of collagen I expression) of released relaxin-2” value in data set [2] (HFLS / synoviocytes, over four weeks, versus untreated control) was “significant downregulation in collagen I expression”. For the same substance, the “collagen I level by densitometry (reduced to)” value in data set [2] (synoviocytes, legend of FIG. 4 breaks off) is recorded as “approximately 50%”. The “primary endpoint of effectiveness” value in data set [3] (25 micrograms/kg/day for 24 weeks, subcutaneous delivery) was “did not meet the trial’s primary endpoint of effectiveness”; in the data set on heart failure, “did not meet the trial’s primary endpoint of effectiveness”. In data set [3] (human, in vivo, sc), the renal adverse events result was “declines in creatine clearance and renal adverse events”. Also, the lung collagen build-up entry in [4] is given as “decreased collagen build-up in the lung induced by bleomycin”. Moreover, the “histology: adhesions / hallmarks of arthrofibrosis” value in data set [5] is on record as “lacked any apparent adhesions”. The “internal ROM” value is “similarly constricted internal ROM compared with the untreated control group” in data set [6] (intravenous injection at a much greater dose); “significant increase back to healthy baseline by week 2” in [6] (relaxin-2 as mIA (5 intraarticular injections of 2 ug/kg every other day), RMP as single injection of approximately 10 ug/kg); “restoration of internal ROM to baseline measurements” in [6] (relaxin-2 as mIA (5 intraarticular injections of 2 ug/kg every other day), RMP as single injection of approximately 10 ug/kg, listed as relaxin-2); “similarly constricted internal ROM compared with the untreated control group” in data set [6] (singular articular injection). In [7], the pharmacokinetic profile entry is “rapid pharmacokinetic profile”. In addition, the TGF-β-induced fibronectin levels entry in data set [8] is on record as “decreased TGF-β-induced fibronectin levels”.
